Holding throughout (format): biochemical
One test has as its target CDK1/Cyclin B (Homo sapiens, UniProt P06493). Briefly: CDK1/Cyclin B kinase assay (FlashPlate or HTRF). The following applies: recombinant human CDK1/Cyclin B, Rb substrate; Ki=IC50/(1+[S]/Km). The method, then: To determine inhibition of CDK1 activity, either FlashPlate™ (NEN™-Life Science Products) assay or HTRF assay was performed. Both types of kinase assays were carried out using recombinant human CDK1/Cyclin B complex. GST-cyclinB (GST-cycB) and CDK1 cDNA clones in baculovirus vectors were provided by Dr. W. Harper at the Baylor College of Medicine, Houston, Tex. Proteins were co-expressed in High Five™ insect cells and the complex was purified on glutathione Sepharose resin (Pharmacia, Piscataway, N.J.) as previously described (Harper, J. W. et al. Cell 1993, 75, 805-816). A 6×-Histidine tagged truncated form of retinoblastoma (Rb) protein (amino acid 386-928) was used as the substrate for the CDK1/Cyclin B assay (the expression plasmid was provided by Dr. Veronica Sullivan, Department of Molecular Virology, Roche Research Centre, Welwyn Garden City, United Kingdom). The Rb protein is a natural substrate for phosphorylation by CDK1 (see Herwig and Strauss Eur. J. Biochem. Vol. 246 (1997) pp. 581-601 and the references cited therein). The expression of the 62 Kd protein was under the control of an IPTG inducible promoter in an M15 E. coli strain. Cells were lysed by sonication and purification was carried out by binding lysates at pH 8.0 to a Ni-chelated agarose column pretreated with 1 mM imidazole. The resin was then washed several times with incrementally decreasing pH buffers to pH 6.0, and eluted with 500 mM imidazole. Eluted protein was dialysed against 20 mM HEPES pH 7.5, 30% glycerol, 200 mM NaCl, and 1 mM DTT. Purified Rb fusion protein stocks were quantitated for protein concentration, aliquoted, and stored at −70° C.
For the FlashPlate kinase assay, 96-well FlashPlates were coated with Rb protein at 10 μg/ml, using 100 μl per well. Plates were incubated at 4° C. overnight or at room temperature for 3 hours on a shaker. To control for nonspecific phosphorylation, one row of wells was coated with 100 μl/well coating buffer (20 mM HEPES, 0.2 M NaCl). Plates were then washed twice with wash buffer (0.01% Tween 20 in phosphate-buffered saline). Compounds to be tested (“test compounds”) were added to the wells at 5×final concentration. Reactions were initiated by immediate addition of 40 μl reaction mix (25 mM HEPES, 20 mM MgCl2, 0.002% Tween 20, 2 mM DTT, 1 μM ATP, 3.3 nM 33P-ATP) and a sufficient amount of enzyme to give counts that were at least 10-fold above background. Plates were incubated at room temperature on a shaker for 30 minutes. Plates were washed four times with the wash buffer, sealed, and counted on the TopCount scintillation counter (Packard Instrument Co., Downers Grove, Ill.). The percent inhibition of Rb phosphorylation, which is a measure of the inhibition of CDK1 activity, was determined according to the following formula:
[formula] where “test compound” refers to the average counts per minute of the test duplicates, “nonspecific” refers to the average counts per minute when no CDK1/Cyclin B, etc., was added, and “total” refers to the average counts per minute when no compound was added. […] The value of the inhibitor constant Ki is calculated by the following: Ki=IC50/(1+[S]/Km), where [S] is the ATP concentration and Km is Michaelis constant.
The Homogeneous Time Resolved Fluorescence (HTRF) kinase assay was carried out in 96-well polypropylene plates (BD Biosciences, Bedford, Mass.). […]
In general terms: In TR-FRET formats the signal depends on donor and acceptor labels being close together.

Another test concerns the target CDK2 (Homo sapiens, UniProt P24941). The test is described as follows: CDK2 kinase inhibition (selectivity).
The target in the next test is CDK4 (Homo sapiens, UniProt P11802). Briefly: CDK4 kinase inhibition (selectivity).
Chain of CDK4 (P11802 whole entry, species assumed): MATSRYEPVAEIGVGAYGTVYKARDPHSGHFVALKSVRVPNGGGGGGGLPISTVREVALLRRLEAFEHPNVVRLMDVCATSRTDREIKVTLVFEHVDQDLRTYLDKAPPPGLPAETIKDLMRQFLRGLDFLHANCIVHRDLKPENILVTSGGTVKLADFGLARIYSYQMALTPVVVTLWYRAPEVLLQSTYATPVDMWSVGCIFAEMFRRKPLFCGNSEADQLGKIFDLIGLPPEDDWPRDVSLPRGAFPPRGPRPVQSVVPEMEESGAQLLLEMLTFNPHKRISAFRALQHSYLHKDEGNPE
Chain of CDK4 (P24385 whole entry partner, species assumed): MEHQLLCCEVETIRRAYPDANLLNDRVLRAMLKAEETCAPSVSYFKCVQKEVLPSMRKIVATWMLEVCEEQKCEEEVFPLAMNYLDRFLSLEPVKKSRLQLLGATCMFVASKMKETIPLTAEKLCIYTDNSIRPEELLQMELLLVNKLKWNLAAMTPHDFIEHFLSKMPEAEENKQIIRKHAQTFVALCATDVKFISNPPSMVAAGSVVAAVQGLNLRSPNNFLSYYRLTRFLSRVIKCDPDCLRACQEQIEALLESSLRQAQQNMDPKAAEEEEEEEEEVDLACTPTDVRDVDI

Chain of CDK1/Cyclin B (P06493 whole entry, the tested form may be a part): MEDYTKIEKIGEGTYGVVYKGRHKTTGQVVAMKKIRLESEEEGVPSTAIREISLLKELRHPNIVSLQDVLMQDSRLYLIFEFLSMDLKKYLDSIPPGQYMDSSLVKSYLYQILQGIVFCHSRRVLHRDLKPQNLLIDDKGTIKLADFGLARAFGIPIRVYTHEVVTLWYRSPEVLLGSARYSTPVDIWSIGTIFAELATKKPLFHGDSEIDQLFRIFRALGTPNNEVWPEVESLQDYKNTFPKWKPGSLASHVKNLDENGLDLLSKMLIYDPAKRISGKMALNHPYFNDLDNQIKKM
Chain of CDK1/Cyclin B (P14635 whole entry partner, the tested form may be a part): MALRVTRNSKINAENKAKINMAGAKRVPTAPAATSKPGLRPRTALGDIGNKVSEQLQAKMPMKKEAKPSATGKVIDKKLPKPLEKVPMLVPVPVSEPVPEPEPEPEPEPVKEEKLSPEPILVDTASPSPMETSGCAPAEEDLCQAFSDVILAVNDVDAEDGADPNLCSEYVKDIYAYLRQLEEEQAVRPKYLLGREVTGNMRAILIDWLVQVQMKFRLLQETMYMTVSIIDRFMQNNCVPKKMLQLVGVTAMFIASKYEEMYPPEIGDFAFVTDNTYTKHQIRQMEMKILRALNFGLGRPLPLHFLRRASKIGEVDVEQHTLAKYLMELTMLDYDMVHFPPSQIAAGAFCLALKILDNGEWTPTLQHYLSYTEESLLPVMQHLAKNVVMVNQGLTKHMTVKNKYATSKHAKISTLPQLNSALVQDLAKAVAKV

A word on the Ki: it is the equilibrium dissociation constant of an inhibitor or competing ligand from its target. As to `Cc1cccc(Cl)c1CNC1=NC(=O)/C(=C/c2ccc3ncc(C#N)cc3n2)S1` [Example 17, 6-[2-(2-Chloro-6-methyl-benzylamino)-4-oxo-4H-thiazol-5-ylidenemethyl]-[1,5]naphthyridine-3-carbonitrile], the Ki on CDK1/Cyclin B was 539 nM; on CDK2, > 10000 nM.
Consider `CC(C)Oc1c(C#N)cnc2ccc(/C=C3\SC(NCc4cccs4)=NC3=O)nc12` [Example 4, 4-Isopropoxy-6-{4-oxo-2-[(thiophen-2-ylmethyl)-amino]-4H-thiazol-5-ylidenemethyl}-[1,5]naphthyridine-3-carbonitrile], for which the results for the Ki on CDK1/Cyclin B, on CDK2 and at CDK4 were 47 nM, 554 nM and > 10000 nM, respectively.
The matching figures for `CC(C)Oc1c(C#N)cnc2ccc(/C=C3\SC(N)=NC3=O)nc12` [Example 1, 6-(2-Amino-4-oxo-4H-thiazol-5-ylidenemethyl)-4-isopropoxy-[1,5]naphthyridine-3-carbonitrile]: 8 nM, 18 nM and > 10000 nM.
The matching figures for `CC(C)Oc1c(C#N)cnc2ccc(/C=C3\SC(N[C@@H]4C[C@H]4c4ccccc4)=NC3=O)nc12` [Example 3, 4-Isopropoxy-6-[4-oxo-2-(2-phenyl-cyclopropylamino)-4H-thiazol-5-ylidenemethyl]-[1,5]naphthyridine-3-carbonitrile]: 78 nM, 351 nM and > 10000 nM.
The matching figures for `CC(C)Oc1c(C#N)cnc2ccc(/C=C3\SC(NCc4ccccc4Cl)=NC3=O)nc12` [Example 2]: 150 nM, 610 nM and > 10000 nM.

The record behind these values is US7304074B2, “Substituted 1,5-naphthyridine azolinones” (Hoffmann-La Roche Inc., priority 2005, dated 2007).
